Legend:
FGFR4 = FGFR4 (Homo sapiens, UniProt P22455); test: FGFR4 Caliper Assay (in vitro biochemical kinase analysis of FGFR4); details: read-out: Enzymatic activity FGFR4 IC50
Procedure: I. In Vitro Biochemical Kinase Analysis of FGFR4
FGFR4 Caliper Assay was used in the present invention to determine the inhibitory activities of the compounds against FGFR4. The detailed experimental procedure was as follows.
2. A reaction system is a mixture solution of 50 mM HEPES, pH 7.5, 1 mM DTT, 0.02% Tween 20, 0.02% BSA, 0.6% DMSO, 10 mM beta glycerol phosphate and 10 μM sodium orthovanadate and 16 mM MgCl2.
3. The reaction system was incubated at 30° C. for 40 minutes.
4. The reaction was terminated by adding a stop solution (100 mM HEPES, pH 7.5, 5% DMSO, 0.1% Caliper coating reagent, 10 mM EDTA and 0.015% Brij35).
5. The culture plate with the terminated kinase reaction was transferred to the Caliper LC 3000 workstation to read the data, the phosphorylated and unphosphorylated peptides were separated by using the Caliper microfluid migration shift technique, and the analyte was transferred by allowing a constant buffer flow through the chip, the migration of the substrate peptide was monitored by the labeled fluorescent signal, and the kinase activity was calculated by using the amount of the phosphate-based peptide formed.
6. Finally, IC50 values were determined by non-linear regression analysis of percent inhibition at different compound concentrations.

[1] = test system: Huh7 hepatocellular carcinoma cells; test: FGFR4 cell proliferation experiment, Cell Titer Glo (CTG); type: cell-based; details: Homo sapiens, Huh-7, 72 h, HuH-7 cells, 3 days; for IC50: concentration leading to absolute half growth inhibition; for EC50: concentration leading to half maximal growth inhibition
Procedure: II. FGFR4 Cell Proliferation Experiment
Cell Titer Glo (CTG) experiment was used in the present invention to evaluate the functional effects of the compounds on cell proliferation. […] Compound-mediated inhibition of cell proliferation/survival was assessed by quantification of cellular ATP levels using CTG reagent (Promega, #G7573). The specific experimental procedure was as follows:
2. 10 μL of medium containing a compound concentration of 10 fold of its final test concentration was added;
3. The dose effect was evaluated by a 5-fold serial dilution of the test compound, starting from 10 μM.
4. After cells incubation for 3 days at 37° C. under 5% CO2, the effect of the inhibitor on cell proliferation was quantified after adding 50 μL of CTG and testing with luminescence.

Sequence of FGFR4 (P22455 22-802): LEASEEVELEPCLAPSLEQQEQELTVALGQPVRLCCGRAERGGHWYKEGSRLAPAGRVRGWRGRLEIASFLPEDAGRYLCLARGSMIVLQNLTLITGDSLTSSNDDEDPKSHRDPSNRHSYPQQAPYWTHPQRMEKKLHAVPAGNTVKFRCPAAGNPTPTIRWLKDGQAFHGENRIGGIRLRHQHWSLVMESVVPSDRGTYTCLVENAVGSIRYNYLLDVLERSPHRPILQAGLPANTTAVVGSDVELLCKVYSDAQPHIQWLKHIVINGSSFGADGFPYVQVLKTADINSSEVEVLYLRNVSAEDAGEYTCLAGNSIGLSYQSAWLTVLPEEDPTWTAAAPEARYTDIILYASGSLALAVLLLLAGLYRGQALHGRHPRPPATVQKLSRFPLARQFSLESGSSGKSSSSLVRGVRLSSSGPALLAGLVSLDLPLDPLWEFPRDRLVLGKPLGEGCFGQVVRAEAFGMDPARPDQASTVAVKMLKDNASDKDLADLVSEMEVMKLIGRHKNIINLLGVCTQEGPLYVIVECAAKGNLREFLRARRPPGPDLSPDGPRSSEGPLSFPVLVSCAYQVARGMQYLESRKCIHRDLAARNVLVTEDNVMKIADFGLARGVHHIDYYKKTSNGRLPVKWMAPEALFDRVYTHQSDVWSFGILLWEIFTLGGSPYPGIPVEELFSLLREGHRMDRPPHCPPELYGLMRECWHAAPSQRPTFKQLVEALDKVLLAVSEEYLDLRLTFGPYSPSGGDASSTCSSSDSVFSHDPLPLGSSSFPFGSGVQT

Compound	IC50 (FGFR4)	IC50 [1]	EC50 [1]
C=CC(=O)N[C@H]1CCOC[C@H]1Nc1ncc2cc(-c3c(Cl)c(OC)cc(OC)c3Cl)ncc2n1 [Example 119, N-((3S,4S)-3-((6-(2,6-dichloro-3,5-dimethoxyphenyl)pyrido[3,4-d]pyrimidin-2-yl)amino)tetrahydro-2H-pyran-4-yl)acrylamide]	166 nM	457 nM	78.1 nM
C=CC(=O)N[C@H]1COC[C@H]1Nc1ncc2cc(-c3c(F)c(OC)cc(OC)c3F)ncc2n1 [Example 120, N-((3R,4S)-4-((6-(2,6-difluoro-3,5-dime-thoxyphenyl)pyrido[3,4-d]pyrimidin-2-yl)amino)tetrahydrofuran-3-yl)acrylamide]	303 nM	754 nM	156 nM
C=CC(=O)N[C@H]1COC[C@H]1Nc1ncc2cc(-c3cc(OC)cc(OC)c3Cl)ncc2n1 [Example 121, N-((3R,4S)-4-((6-(2-chloro-3,5-dime-thoxyphenyl)pyrido[3,4-d]pyrimidin-2-yl)amino)tetrahydrofuran-3-yl)acrylamide]	183 nM	401 nM	172 nM
C=CC(=O)N[C@H]1COC[C@H]1Nc1cc2cnc(-c3c(Cl)c(OC)cc(OC)c3Cl)cc2cn1 [Example 124, N-((3R,4S)-4-((7-(2,6-dichloro-3,5-dime-thoxyphenyl)-2,6-naphthyridin-3-yl)amino)tetrahydrofuran-3-yl)acrylamide]	61.6 nM	556 nM	303 nM
C=CC(=O)N[C@H]1COC[C@H]1Nc1ncc2cc(-c3c(Cl)c(OC)cc(OC)c3Cl)nc(NCCOC)c2n1 [Example 422, N-((3R,4S)-4-((6-(2,6-dichloro-3,5-di-methoxyphenyl)-8-((2-methoxyethyl)amino)pyrido[3,4-d]pyrimidin-2-yl)a-mino)tetrahydrofuran-3-yl)acrylamide]	22.5 nM	238 nM	47 nM
C=CC(=O)N[C@H]1COC[C@H]1Nc1ncc2cc(-c3c(Cl)c(OC)cc(OC)c3Cl)nc(OC)c2n1 [Example 423, N-((3R,4S)-4-((6-(2,6-dichloro-3,5-di-methoxyphenyl)-8-methoxypyrido[3,4-d]pyrimidin-2-yl)amino)tetrahydro-furan-3-yl)acrylamide]	31.7 nM	348 nM	98 nM
C=CC(=O)N[C@H]1COC[C@H]1Nc1ncc2cc(-c3c(Cl)c(OC)cc(OC)c3Cl)nc(NCCS(=O)(=O)CC)c2n1 [Example 429, N-((3R,4S)-4-((6-(2,6-dichloro-3,5-di-methoxyphenyl)-8-((2-(ethylsulfonyl)ethyl)amino)pyrido[3,4-d]pyrimidin-2-yl)amino)tetrahydrofuran-3-yl)acryl-amide]	22.4 nM	184 nM	63.2 nM
C=CC(=O)N[C@H]1COC[C@H]1Nc1ncc2cc(-c3c(Cl)c(OC)cc(OC)c3Cl)nc(NCCCN(C)C)c2n1 [Example 432, N-((3R,4S)-4-((6-(2,6-dichloro-3,5-di-methoxyphenyl)-8-((3-(dimethylami-no)propyl)amino)pyrido[3,4-d]pyrimi-din-2-yl)amino)tetrahydrofuran-3-yl) acrylamide]	106 nM	934 nM	396 nM
C=CC(=O)N[C@H]1COC[C@H]1Nc1ncc2cc(-c3c(Cl)c(OC)cc(OC)c3Cl)nc(NCC(F)(F)F)c2n1 [Example 435, N-((3R,4S)-4-((6-(2,6-dichloro-3,5-di-methoxyphenyl)-8-((2,2,2-trifluoroeth-yl)amino)pyrido[3,4-d]pyrimidin-2-yl)amino)tetrahydrofuran-3-yl)acryl-amide]	67 nM	148 nM	80 nM
C=CC(=O)N[C@H]1COC[C@H]1Nc1ncc2cc(-c3c(Cl)c(OC)cc(OC)c3Cl)nc(NC3CC(F)(F)C3)c2n1 [Example 452, N-((3R,4S)-4-((6-(2,6-dichloro-3,5-di-methoxyphenyl)-8-((3,3-difluorocyclo-butyl)amino)pyrido[3,4-d]pyrimidin-2-yl)amino)tetrahydrofuran-3-yl) acrylamide]	42.2 nM	53.3 nM	20.3 nM
C=CC(=O)N[C@H]1COC[C@H]1Nc1ncc2cc(-c3c(Cl)c(OC)cc(OC)c3Cl)nc(NCC3CCCC3)c2n1 [Example 454, N-((3R,4S)-4-((8-((cyclopentylmeth-yl)amino)-6-(2,6-dichloro-3,5-dimeth-oxyphenyl)pyrido[3,4-d]pyrimidin-2-yl)amino)tetrahydrofuran-3-yl)acryl-amide]	66.9 nM	89.2 nM	40.8 nM
C=CC(=O)N[C@H]1COC[C@H]1Nc1ncc2cc(-c3c(Cl)c(OC)cc(OC)c3Cl)nc(NCCc3ccccc3)c2n1 [Example 456, N-((3R,4S)-4-((6-(2,6-dichloro-3,5-di-methoxyphenyl)-8-(phenethylamino)pyrido[3,4-d]pyrimidin-2-yl)amino)tetrahydrofuran-3-yl)acrylamide]	82.4 nM	299 nM	163 nM

Results, then the compound that gave them:

IC50 (FGFR4)	IC50 [1]	EC50 [1]	Compound
22 nM	53.7 nM	31.5 nM	C=CC(=O)N[C@H]1COC[C@H]1Nc1cc2c(NCC3CC3)nc(-c3c(Cl)c(OC)cc(OC)c3Cl)cc2cn1 [Example 126, N-((3R,4S)-4-((5-((cyclopropylmethyl)amino)-7-(2,6-dichloro-3,5-dimethoxy-phenyl)-2,6-naphthyridin-3-yl)amino)tetrahydrofuran-3-yl)acrylamide]
12.4 nM	10 nM	5.4 nM	C=CC(=O)N[C@H]1COC[C@H]1Nc1ncc2cc(-c3c(Cl)c(OC)cc(OC)c3Cl)nc(NCC3CC3)c2n1 [Example 421, N-((3R,4S)-4-((8-((cyclopropylmethyl)amino)-6-(2,6-dichloro-3,5-dimethoxyphenyl)pyrido[3,4-d]pyrimidin-2-yl)amino)tetrahydrofuran-3-yl)acrylamide]
11 nM	37.2 nM	18.5 nM	C=CC(=O)N[C@H]1COC[C@H]1Nc1ncc2cc(-c3c(F)c(OC)cc(OC)c3F)nc(NCC3CC3)c2n1 [Example 424, N-((3R,4S)-4-((8-((cyclopropylmeth-yl)amino)-6-(2,6-difluoro-3,5-dimeth-oxyphenyl)pyrido[3,4-d]pyrimidin-2-yl)amino)tetrahydrofuran-3-yl)acryl-amide]
19.1 nM	93.5 nM	32 nM	C=CC(=O)N[C@H]1COC[C@H]1Nc1ncc2cc(-c3c(Cl)c(OC)cc(OC)c3Cl)nc(NCCNS(C)(=O)=O)c2n1 [Example 430, N-((3R,4S)-4-((6-(2,6-dichloro-3,5-dimethoxyphenyl)-8-((2-(methyl-sulfonamido)ethyl)a-mino)pyrido[3,4-d]pyri-midin-2-yl)amino)tetrahydrofuran-3-yl)acrylamide]
7.6 nM	26.1 nM	19.3 nM	C=CC(=O)N[C@H]1COC[C@H]1Nc1ncc2cc(-c3c(Cl)c(OC)cc(OC)c3Cl)nc(NC)c2n1 [Example 433, N-((3R,4S)-4-((6-(2,6-dichloro-3,5-dimethoxyphenyl)-8-(methylamino)pyrido[3,4-d]pyrimidin-2-yl)amino)tetrahydrofuran-3-yl)acrylamide]
8.4 nM	18.2 nM	9.6 nM	C=CC(=O)N[C@H]1COC[C@H]1Nc1ncc2cc(-c3c(Cl)c(OC)cc(OC)c3Cl)nc(NCC)c2n1 [Example 434]
3.5 nM	17.8 nM	9.9 nM	C=CC(=O)N[C@H]1COC[C@H]1Nc1ncc2cc(-c3c(Cl)c(OC)cc(OC)c3Cl)nc(NC[C@H]3CCCO3)c2n1 [Example 438A, N-((3R,4S)-4-((6-(2,6-dichloro-3,5-di-methoxyphenyl)-8-((((R)-tetrahydro-furan-2-yl)methyl)amino)pyrido[3,4-d]pyrimidin-2-yl)amino)tetrahydro-furan-3-yl)acrylamide]
9.1 nM	35.1 nM	15.8 nM	C=CC(=O)N[C@H]1COC[C@H]1Nc1ncc2cc(-c3c(Cl)c(OC)cc(OC)c3Cl)nc(NC[C@@H]3CCCO3)c2n1 [Example 438B, N-((3R,4S)-4-((6-(2,6-dichloro-3,5-di-methoxyphenyl)-8-((((S)-tetrahydro-furan-2-yl)methyl)amino)pyrido[3,4-d]pyrimidin-2-yl)amino)tetrahydro-furan-3-yl)acrylamide]
8.2 nM	70.8 nM	15.9 nM	C=CC(=O)N[C@H]1COC[C@H]1Nc1ncc2cc(-c3c(Cl)c(OC)cc(OC)c3Cl)nc(NC3CCOC3)c2n1 (stereo partly drawn) [Example 443, N-((3R,4S)-4-((6-(2,6-dichloro-3,5-di-methoxyphenyl)-8-((tetrahydrofuran-3-yl)amino)pyrido[3,4-d]pyrimidin-2-yl)amino)tetrahydrofuran-3-yl) acrylamide]

From patent US11555036B2, “FGFR4 inhibitor, preparation method therefor and pharmaceutical use thereof” (Abbisko Therapeutics Co., Ltd., priority 2016, dated 2023)
